Assay results as given in PubChem BioAssay (NCI).
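1) Cells in 96-well plates. 2) Compound, 48 h, 5 concentrations. 3) Linear interpolation between surrounding doses. 4) Unreached endpoint = highest concentration. Here, GI50 denotes the concentration required for 50% inhibition of growth. Definition used: TGI = concentration required for complete inhibition of growth.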

Assays:
Assay in all cases: DTP human tumour cell line panel, 48 h
[1] = test system: 786-0 renal
[2] = test system: A498 renal
[3] = test system: A549 NSCLC
[4] = test system: ACHN renal
[5] = test system: BT-549 breast
[6] = test system: CAKI-1 renal
[7] = test system: CCRF-CEM leukemia
[8] = test system: COLO 205 colon
[9] = test system: DU-145 prostate
[10] = test system: EKVX NSCLC
[11] = test system: HCC-2998 colon
[12] = test system: HCT-116 colon
[13] = test system: HCT-15 colon
[14] = test system: HL-60(TB) leukemia
[15] = test system: HOP-62 NSCLC
[16] = test system: HOP-92 NSCLC
[17] = test system: HS 578T breast
[18] = test system: HT29 colon
[19] = test system: IGROV1 ovarian
[20] = test system: K-562 leukemia
[21] = test system: LOX IMVI melanoma
[22] = test system: M14 melanoma
[23] = test system: MALME-3M melanoma
[24] = test system: MCF7 breast
[25] = test system: MDA-MB-231 breast
[26] = test system: MOLT-4 leukemia
[27] = test system: NCI-H226 lung
[28] = test system: NCI-H23 lung
[29] = test system: NCI-H460 lung
[30] = test system: NCI-H522 lung
[31] = test system: NCI/ADR-RES ovarian
[32] = test system: OVCAR-4 ovarian
[33] = test system: OVCAR-5 ovarian
[34] = test system: OVCAR-8 ovarian
[35] = test system: PC-3 prostate
[36] = test system: RPMI-8226 leukemia
[37] = test system: RXF 393 renal
[38] = test system: SF-268 CNS
[39] = test system: SF-295 CNS
[40] = test system: SF-539 CNS
[41] = test system: SK-MEL-2 melanoma
[42] = test system: SK-MEL-28 melanoma
[43] = test system: SK-MEL-5 melanoma
[44] = test system: SK-OV-3 ovarian
[45] = test system: SN12C renal
[46] = test system: SNB-19 CNS
[47] = test system: SNB-75 CNS
[48] = test system: SR leukemia
[49] = test system: SW-620 colon
[50] = test system: TK-10 renal
[51] = test system: U251 CNS
[52] = test system: UACC-62 melanoma
[53] = test system: UO-31 renal
[54] = test system: KM12 colon
[55] = test system: MDA-MB-435
[56] = test system: OVCAR-3 ovarian
[57] = test system: T-47D breast
[58] = test system: UACC-257 melanoma

Structure (SMILES): COc1ccc(CN2c3ccccc3Sc3ccccc32)cc1O
- GI50 [1]: 0.838 µM
- TGI [1]: 21.5 µM
- GI50 [2]: 2.71 µM
- TGI [2]: 19 µM
- GI50 [3]: 0.471 µM
- TGI [3]: 16.7 µM
- GI50 [4]: 1.56 µM
- TGI [4]: 21.8 µM
- GI50 [5]: 0.773 µM
- TGI [5]: 17.1 µM
- GI50 [6]: 0.472 µM
- TGI [6]: 17.7 µM
- GI50 [7]: 0.411 µM
- TGI [7]: 22.4 µM
- GI50 [8]: 0.789 µM
- TGI [8]: 4.6 µM
- GI50 [9]: 0.374 µM
- TGI [9]: 15 µM
- GI50 [10]: 0.378 µM
- TGI [10]: 15.9 µM
- GI50 [11]: 0.422 µM
- TGI [11]: 10.7 µM
- GI50 [12]: 0.386 µM
- TGI [12]: 13.1 µM
- GI50 [13]: 0.369 µM
- TGI [13]: 11.8 µM
- GI50 [14]: 0.257 µM
- TGI [14]: 0.661 µM
- GI50 [15]: 0.384 µM
- TGI [15]: 17.4 µM
- GI50 [16]: 0.502 µM
- TGI [16]: 17.5 µM
- GI50 [17]: 0.933 µM
- TGI [17]: 46 µM
- GI50 [18]: 0.724 µM
- TGI [18]: 6.4 µM
- GI50 [19]: 1.93 µM
- TGI [19]: 21.3 µM
- GI50 [20]: 0.365 µM
- TGI [20]: 26.6 µM
- GI50 [21]: 0.71 µM
- TGI [21]: 18.8 µM
- GI50 [22]: 0.383 µM
- TGI [22]: 18.6 µM
- GI50 [23]: 12.1 µM
- TGI [23]: 28.1 µM
- GI50 [24]: 0.355 µM
- TGI [24]: 13.4 µM
- GI50 [25]: 0.668 µM
- TGI [25]: 18.1 µM
- GI50 [26]: 0.42 µM
- TGI [26]: 22.4 µM
- GI50 [27]: 12.2 µM
- TGI [27]: 35 µM
- GI50 [28]: 0.364 µM
- TGI [28]: 13.2 µM
- GI50 [29]: 0.444 µM
- TGI [29]: 13.4 µM
- GI50 [30]: 0.241 µM
- TGI [30]: 0.781 µM
- GI50 [31]: 0.291 µM
- TGI [31]: 0.863 µM
- GI50 [32]: 0.726 µM
- TGI [32]: 19.3 µM
- GI50 [33]: 12.7 µM
- TGI [33]: 36 µM
- GI50 [34]: 0.508 µM
- TGI [34]: 20.3 µM
- GI50 [35]: 0.503 µM
- TGI [35]: 16.1 µM
- GI50 [36]: 0.483 µM
- TGI [36]: 35.5 µM
- GI50 [37]: 0.338 µM
- TGI [37]: 15.6 µM
- GI50 [38]: 0.966 µM
- TGI [38]: 20.5 µM
- GI50 [39]: 0.225 µM
- TGI [39]: 0.646 µM
- GI50 [40]: 0.27 µM
- TGI [40]: 0.823 µM
- GI50 [41]: 0.333 µM
- TGI [41]: 19.9 µM
- GI50 [42]: 14.4 µM
- TGI [42]: 32.2 µM
- GI50 [43]: 0.438 µM
- TGI [43]: 11.3 µM
- GI50 [44]: 0.521 µM
- TGI [44]: 16.4 µM
- GI50 [45]: 1.29 µM
- TGI [45]: 22.3 µM
- GI50 [46]: 0.771 µM
- TGI [46]: 26.9 µM
- GI50 [47]: 0.18 µM
- TGI [47]: 13.3 µM
- GI50 [48]: 0.407 µM
- TGI [48]: 30.7 µM
- GI50 [49]: 0.504 µM
- TGI [49]: 17.7 µM
- GI50 [50]: 2.52 µM
- TGI [50]: 20.5 µM
- GI50 [51]: 0.427 µM
- TGI [51]: 14.5 µM
- GI50 [52]: 0.682 µM
- TGI [52]: 19.4 µM
- GI50 [53]: 0.751 µM
- TGI [53]: 18.9 µM

Structure (SMILES): Cc1c(C(=O)O)sc2nc[nH]c(=O)c12
- TGI [1]: > 100 µM
- TGI [3]: > 100 µM
- TGI [4]: > 100 µM
- TGI [6]: > 100 µM
- TGI [8]: > 100 µM
- TGI [9]: > 100 µM
- TGI [10]: > 100 µM
- TGI [11]: > 100 µM
- TGI [12]: > 100 µM
- TGI [13]: > 100 µM
- TGI [14]: > 100 µM
- TGI [15]: > 100 µM
- TGI [16]: > 100 µM
- TGI [17]: 79.5 µM
- TGI [18]: > 100 µM
- TGI [19]: > 100 µM
- TGI [20]: > 100 µM
- TGI [54]: > 100 µM
- TGI [21]: > 100 µM
- TGI [22]: > 100 µM
- TGI [23]: > 100 µM
- TGI [24]: > 100 µM
- TGI [25]: > 100 µM
- TGI [55]: > 100 µM
- TGI [26]: > 100 µM
- TGI [27]: > 100 µM
- TGI [28]: > 100 µM
- TGI [29]: > 100 µM
- TGI [30]: > 100 µM
- TGI [31]: > 100 µM
- TGI [56]: > 100 µM
- TGI [32]: > 100 µM
- TGI [33]: > 100 µM
- TGI [34]: > 100 µM
- TGI [35]: > 100 µM
- TGI [36]: > 100 µM
- TGI [37]: > 100 µM
- TGI [38]: > 100 µM
- TGI [39]: > 100 µM
- TGI [40]: > 100 µM
- TGI [41]: > 100 µM
- TGI [42]: > 100 µM
- TGI [43]: > 100 µM
- TGI [44]: > 100 µM
- TGI [45]: > 100 µM
- TGI [46]: > 100 µM
- TGI [47]: > 100 µM
- TGI [49]: > 100 µM
- TGI [57]: > 100 µM
- TGI [50]: > 100 µM
- TGI [51]: > 100 µM
- TGI [58]: > 100 µM
- TGI [52]: > 100 µM
- TGI [53]: > 100 µM
